From patent US10793514B2, “Glutamine transport inhibitors and methods for treating cancer” (Vanderbilt University, priority 2016, dated 2020)
“Also recorded” adds a separate entry of the source.

How the values were obtained:
[1] = molecular target: ASCT2 (Homo sapiens (Human), UniProt Q15758); experiment: Drug Affinity Responsive Target Stability (DARTS) assay, ASCT2; details: tetracycline-inducible ASCT2 HEK293 cells; 50, 100, 200 μM
[2] = Tolerability in chronic exposure studies (body mass, liver pathology); format: in vivo, mouse; details: 75 mg/kg per day, 21 days, vs vehicle
[3] = system: HCC1806 cells; experiment: LC3B immunofluorescence; format: cell-based, human; details: 25 μM, 48 hrs
Description: Following treatment, cells were fixed with 70% methanol for 5-10 min. LC3B was visualized with 1:100 primary antibody (anti LC3B, Cell signaling 2775) at 37° C. for 45 min followed by application of 1:600 secondary antibody (Rhodamine Red, Invitrogen R6394) at 37° C. for 30 min and DAPI for 4 min. Images were acquired with a fluorescence microscope at visualized at 40× magnification.

[4] = system: activated CD8-positive T-cells; experiment: Viability and activation of CD8-positive T-cells; format: cell-based, mouse; details: 96 hrs
Description: CD8+ cells were isolated from the spleens of 8-12 week old C57BL6 mice on standard chow from Jackson Labs maintained under IACUC approved protocols. CD8+ cells were stained using the proliferative dye Cell Trace Violet (LifeTech) before stimulation as per manufacturer's protocol. Cells were stimulated on 5 ug/mL anti-CD3/CD28-coated plates in media containing IL-2 (‘activated’, 10 ng/mL), or in tissue-culture treated plates in media containing IL-7 (‘naive’, 1 ng/mL) for up to 7 days. Cells were removed at each day described for viability, cell counts, proliferation, and surface markers of activation. Cell surface markers used were CD62L-FITC and APC, CD44-PECy5 and CD25-PE. All data were acquired in triplicate on a MacsQuant Analyzer (Miltenyi Biotec) and analyzed using FlowJo V10 (TreeStar software).

[5] = system: Colo-205 xenografts; experiment: Colo-205 xenograft 10-day exposure study; format: in vivo, mouse; details: 75 mg/kg per day, 10 days
[6] = system: HCC1806 cells; experiment: Immunoblot of pS6 and pERK in HCC1806 cells; format: cell-based, human; details: 25 μM, 48 hrs
Description: For immunoreactivity studies, tissue samples were diluted to 100 mg/mL in lysis buffer (#7018s, Cell Signaling Technology) and subsequently homogenized, sonicated, and spun at 3.5K RPM for 1 min. Lysate samples were then screened against an array of target-specific capture antibodies using PathScan Intracellular Signaling Array Kits (#7323, Cell Signaling Technology) in accordance with the manufacturer's instructions and developed using HyBlot CL autoradiography film (# e3012, Denville Scientific Inc.). Processed films were digitized using an Epson Perfection V600 Photo scanner and the relative pixel intensities for each blot quantified using the image processing software ImageJ. Complementary western blot studies were performed by loading 20-40 μg of protein into 7.5-12% SDS PAGE gels, […]. Membranes were blocked overnight at 4° C. in trisbuffered saline 0.1% Tween-20 (TBST) containing 5% w/v nonfat dry milk powder and subsequently incubated with antibodies to p-ERK 1/2 Thr202/Tyr204 (Cell Signaling, 4370), pS6 (Cell Signaling, #4858) LC3B, (anti LC3B, Cell signaling 2775), or b-tubulin (Novus Biologicals, NB600-936); Membrane chemiluminescence was imaged on a Xenogen IVIS 200 system.

[7] = system: HCC1806 cell line xenograft; experiment: [18F]-4F-glutamine PET imaging; format: in vivo, mouse; details: single dose 75 mg/kg, 4 h
Description: Animal handling methods for PET imaging studies were conducted as reported^5,42 Prior to imaging, animals were allowed to acclimate to facility environment for at least 1 h in a warmed chamber at 31.5° C. Animals were administered 10.4-11.8 MBq 4-[^18F]fluoroglutamine via intravenous injection and imaged using a Concorde Microsystems Focus 220 microPET scanner (Siemens Preclinical Solutions). During imaging, animals were maintained under 2% isoflurane anesthesia in oxygen at 2 L/min and kept warm for the duration of the PET scan. PET images in xenograft-bearing mice were acquired as 60-minute dynamic data sets. […] PET data were reconstructed using a three-dimensional (3D) ordered subset expectation maximization/maximum a posteriori (OSEM3D/MAP) algorithm. […] ASIPro software (Siemens Preclinical Solutions) was used to manually draw 3D regions of interest (ROIs) surrounding the entire tumor volume. 4-[^18F]fluoroglutamine uptake was quantified as the percentage of the injected dose per gram of tissue (% ID/g). Significance was calculated using a t-test in Graphpad Prism. Error is reported as standard deviation (SD).
For in vivo studies, cell-line xenograft tumors were propagated in 6-week old, female athymic nude mice from immortalized cell lines. […] Tumor volumes were measured manually using calipers every third day and quantified using the formula V=W·L·(H/2).

[8] = system: HEK-293 cells; experiment: 3H-labeled amino acid uptake selectivity panel; format: cell-based, human; details: 3H-leucine, HEK293
Description: Live-cell amino acid uptake assays using HEK293 cells were carried out in 96-well plates (CulturPlate-96, Perkin Elmer). 96-well plates were coated with poly-D-lysine prior to the assay. Cells were plated at a density of 35,000 cells per well 24 h prior to carrying out the assay. Each set of conditions was replicated at least three times, technically and biologically. […] For ASCT2-mediated ^3H-glutamine uptake assays, 5 mM of the system-L inhibitor 2-amino-2-norbornanecarboxylic acid (BCH) was added and the assay buffer was adjusted to pH 6.0. For selectivity studies, no BCH was added and the assay was conducted at pH 7.4. Following the incubation period, the ^3H-glutamine/inhibitor was removed and the cells were washed three times with assay buffer. The cells were then lysed by the addition of 50 μL of 1 M NaOH. For reading, 150 μL of scintillation fluid (Microscint 40, Perkin Elmer) was added and the plates were counted on a scintillation counter (Topcount, Perkin Elmer). Fifty percent inhibitory concentrations (IC50) were calculated using GraphPad Prism version 6 for Mac OS X, GraphPad Software, San Diego Calif. USA, www.graphpad.com. Error is reported as standard deviation (SD).

ASCT2, sequence (Q15758 whole entry): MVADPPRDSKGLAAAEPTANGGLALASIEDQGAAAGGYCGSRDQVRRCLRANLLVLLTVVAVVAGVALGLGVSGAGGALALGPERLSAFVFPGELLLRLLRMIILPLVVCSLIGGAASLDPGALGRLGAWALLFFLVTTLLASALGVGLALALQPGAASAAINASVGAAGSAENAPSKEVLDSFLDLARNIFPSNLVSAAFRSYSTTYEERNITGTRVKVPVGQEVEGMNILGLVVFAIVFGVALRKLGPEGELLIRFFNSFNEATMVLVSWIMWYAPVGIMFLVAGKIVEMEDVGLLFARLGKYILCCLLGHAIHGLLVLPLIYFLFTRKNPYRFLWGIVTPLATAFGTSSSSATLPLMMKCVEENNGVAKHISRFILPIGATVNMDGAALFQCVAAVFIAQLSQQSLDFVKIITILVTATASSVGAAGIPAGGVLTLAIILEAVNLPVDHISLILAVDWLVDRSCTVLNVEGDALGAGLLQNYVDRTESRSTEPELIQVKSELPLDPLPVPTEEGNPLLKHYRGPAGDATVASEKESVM

Cc1cccc(COc2ccccc2CN(CCC(N)C(=O)O)Cc2ccccc2OCc2cccc(C)c2)c1 (stereo not shown) [Compound V-9302]
protection of ASCT2 from proteolysis (thermolysin) [1]: protected from proteolysis in a V-9302 concentration-dependent manner
liver pathology ([2]; athymic nude mice, H&E): similar; also recorded: no discernible difference
weight loss ([2]; chronic exposure): no significant weight loss
LC3B, marker of autophagy [3]: elevated LC3B
T-cell activation ([4]; CD44 expression): not impaired
T-cell viability ([4]; in vitro, relative to vehicle): unchanged relative to vehicle
tumor BRDU uptake [5]: decreased tumor BRDU uptake
tumor growth [5]: tumor growth arrest
tumor response markers [5]: elevated LC3B, cleaved caspase 3 and decreased pAKT (Ser473 and Thr308), as well as increased cleaved PARP and decreased and pERK
pERK [6]: modest decrease in pERK
pS6 [6]: significantly decreased pS6
reduction of [18F]-4F-glutamine uptake in tumors [7]: approximately 50%
inhibition of leucine uptake [8]: capable of inhibiting the uptake of another ASCT2 substrate, leucine
